From PMC10703812, “Understanding the molecular mechanisms of odorant binding and activation of the human OR52 family” (Nature Communications, 2023)
Several values for one entry are separate records, joined by “and”; a condition that tells them apart may be missing. Equal values may be shown once.

Key:
Format in all cases: cell-based, human
OR52cs F161A = assay: cAMP signaling assay, mutant; set-up: cAMP response: scale not given here; conditions: for cAMP response: Fig.3d source data, single experiments
Experimental: (§1) For cAMP assay, CRE luciferase assay, and surface ELISA, the full-length OR52cs construct was cloned into the pcDNA3.1 vector. The Lucy signal sequence and FLAG peptide sequence were added to the N-terminus. Mutant constructs were generated by site-directed mutagenesis. For BRET assay, eYFP was added at the C-terminus of OR52cs with a GGGGS linker. Rluc was added to Gα for resonance partner (after L99 for Gαs, and I100 for Gαolf, respectively, with GGGGS linker back and forth).
(§2) Hana3A cells were seeded on 96-well white microplates and transfected with OR52cs or the corresponding mutants and cAMP sensor (Promega). The medium was exchanged with CO2-independent medium (Gibco) supplemented with 0.375 mg ml^−1 D-luciferin (Nanolight) 48 h after infection, and cells were incubated in the dark at 20 °C for 2 h. Basal luminescence was detected using a Tristar 2 LB 942 multimode reader (Berthold) until it reached a plateau. Subsequently, various concentrations of odorants and forskolin (Sigma-Aldrich) were added to each well, and luminescence was measured again. Data were analyzed and plotted using GraphPad Prism 9.4.1.

OR52cs F253A = assay: cAMP signaling assay, mutant; set-up: cAMP response: scale not given here; conditions: for cAMP response: Fig.S13b source data, single experiments
Experimental: as §1, §2

OR52cs F261A = assay: cAMP signaling assay, mutant; set-up: cAMP response: scale not given here; conditions: for cAMP response: Fig.3d source data, single experiments
Experimental: as §1, §2

OR52cs H264A = assay: cAMP signaling assay, mutant; set-up: cAMP response: scale not given here; conditions: for cAMP response: Fig.S13b source data, single experiments
Experimental: as §1, §2

OR52cs H275A = assay: cAMP signaling assay, mutant; set-up: cAMP response: scale not given here; conditions: for cAMP response: Fig.S13b source data, single experiments
Experimental: as §1, §2

OR52cs I208A = assay: cAMP signaling assay, mutant; set-up: cAMP response: scale not given here; conditions: for cAMP response: Fig.3d source data, single experiments
Experimental: as §1, §2

OR52cs S114A = assay: cAMP signaling assay, mutant; set-up: cAMP response: scale not given here; conditions: for cAMP response: Fig.S13b source data, single experiments
Experimental: as §1, §2

OR52cs T110A = assay: cAMP signaling assay, mutant; set-up: cAMP response: scale not given here; conditions: for cAMP response: Fig.3d source data, single experiments
Experimental: as §1, §2

OR52cs Y254A = assay: cAMP signaling assay, mutant; set-up: cAMP response: scale not given here; conditions: for cAMP response: Fig.S13b source data, single experiments
Experimental: as §1, §2

OR52cs D212A = assay: cAMP signaling assay, mutant; set-up: scale not given here; conditions: Fig.S13b source data, single experiments
Experimental: as §1, §2

OR52cs-bRIL-ICL3 = assay: cAMP signaling assay, bRIL chimera; set-up: cAMP response: scale not given here; conditions: for cAMP response: Fig.S11a source data
Excerpt: For the structural study of apo state OR52cs, the chimeric construct of full-length OR52cs (1–313)[23] was designed to insert bRIL between A226 and L227 with a linker sequence derived from adenosine receptor A2a, as previously described. For purification of active state OR52cs, full-length OR52cs (1–313) was used. Each construct was subcloned into the pFastBac HT B vector with a Lucy signal sequence ([…])[17] and FLAG peptide at the N-terminus. Each construct also included an eGFP with 10xHis-tag, which was fused to the C-terminus of OR52cs with a HRV 3C protease cleavage sequence.
as §2

OR52cs = assay: CRE luciferase assay in Hana3A cells; conditions: Fig.S7b, single experiments
Experimental: as §1
Hana3A cells were seeded on 96-well white microplates (SPL) and transfected with plasmids encoding CRE-luciferase, OR52cs or R265^6.59A mutant, Renilla luciferase, RTP1S, and Ric8b at a […] ratio 24 h after seeding. 48 h after infection, cells were treated with odorants and incubated at 37 °C for 4 h. Luminescence was measured using a Tristar 2 LB 942 multimode reader (Berthold). All values were divided by the Renilla luciferase activity to normalize the effect of cell confluence. All data were analyzed using GraphPad Prism 9.4.1.

CCCCCCCC(=O)O [Octanoate, octanoic acid]
X-fold over OR52cs (relative fold of EC50) (OR52cs F161A; Supplementary Table 3): 5.3
EC50 (OR52cs F161A; Supplementary Table 3, N=3): 42 µM
pEC50 ± SEM (OR52cs F161A; Supplementary Table 3, N=3): 4.214 ± 0.075
cAMP response (OR52cs F161A; odorant 3.0303e-5 M): 40.1826 and 27.0053 and 36.2901
cAMP response (OR52cs F161A; odorant 0.0001 M): 77.0461 and 49.0263 and 69.6028
cAMP response (OR52cs F161A; odorant 0.001 M): 102.629 and 63.8026 and 79.1192
EC50 (OR52cs F253A; Supplementary Fig. 13b): 219 µM
cAMP response (OR52cs F253A; odorant 9.18274e-8 M): 0.6755 and 1.259 and 1.115
cAMP response (OR52cs F253A; odorant 9.18274e-7 M): 1.327 and 1.6492 and 1.457
cAMP response (OR52cs F253A; odorant 9.18274e-6 M): 3.718 and 4.351 and 3.597
cAMP response (OR52cs F253A; odorant 3.0303e-5 M): 11.1366 and 13.9484 and 11.2845
cAMP response (OR52cs F253A; odorant 0.0001 M): 38.3735 and 42.0381 and 35.9654
cAMP response (OR52cs F253A; odorant 0.001 M): 106.487 and 105.397 and 81.8862
downstream signaling (in words) (OR52cs F261A; Fig. 3d): significantly reduced downstream signaling
X-fold over OR52cs (relative fold of EC50) (OR52cs F261A; Supplementary Table 3): 64.0
EC50 (OR52cs F261A; Supplementary Table 3, N=3): 506 µM
pEC50 ± SEM (OR52cs F261A; Supplementary Table 3, N=3): 3.326 ± 1.547
cAMP response (OR52cs F261A; odorant 9.18274e-7 M): 3.451 and 3.066 and 1.971
cAMP response (OR52cs F261A; odorant 3.0303e-5 M): 5.756 and 6.219 and 11.0254
cAMP response (OR52cs F261A; odorant 0.001 M): 66.0962 and 58.1347 and 77.5545
EC50 (OR52cs H264A; Supplementary Fig. 13b): 60 µM
cAMP response (OR52cs H264A; odorant 9.18274e-6 M): 4.615 and 4.081 and 4.27
cAMP response (OR52cs H264A; odorant 3.0303e-5 M): 14.0038 and 11.3214 and 12.3984
cAMP response (OR52cs H264A; odorant 0.0001 M): 28.5965 and 25.2729 and 26.8638
cAMP response (OR52cs H264A; odorant 0.001 M): 40.8869 and 35.5267 and 36.771
EC50 (OR52cs H275A; Supplementary Fig. 13b): 67 µM
cAMP response (OR52cs H275A; odorant 9.18274e-7 M): 1.163 and 1.2177 and 0.8093
cAMP response (OR52cs H275A; odorant 9.18274e-6 M): 12.1088 and 9.48 and 7.718
cAMP response (OR52cs H275A; odorant 3.0303e-5 M): 33.8567 and 32.1825 and 24.2227
cAMP response (OR52cs H275A; odorant 0.0001 M): 62.7151 and 60.5238 and 53.5809
cAMP response (OR52cs H275A; odorant 0.001 M): 101.549 and 94.9309 and 77.7131
X-fold over OR52cs (relative fold of EC50) (OR52cs I208A; Supplementary Table 3): 0.65
EC50 (OR52cs I208A; Supplementary Table 3, N=3): 5.1 µM
pEC50 ± SEM (OR52cs I208A; Supplementary Table 3, N=3): 5.321 ± 0.119
cAMP response (OR52cs I208A; odorant 9.18274e-7 M): 9.649 and 7.873 and 7.984
cAMP response (OR52cs I208A; odorant 9.18274e-6 M): 74.2921 and 59.9569
cAMP response (OR52cs I208A; odorant 3.0303e-5 M): 118.216 and 87.9298 and 99.5696
cAMP response (OR52cs I208A; odorant 0.0001 M): 123.062 and 85.14 and 99.773
cAMP response (OR52cs I208A; odorant 0.001 M): 115.233 and 86.0111 and 85.4934
EC50 (OR52cs S114A; Supplementary Fig. 13b): 54 µM
cAMP response (OR52cs S114A; odorant 9.18274e-7 M): 0.7937 and 0.8194 and 1.08
cAMP response (OR52cs S114A; odorant 9.18274e-6 M): 9.728 and 8.57 and 11.8154
cAMP response (OR52cs S114A; odorant 3.0303e-5 M): 42.675 and 40.9596 and 54.3071
cAMP response (OR52cs S114A; odorant 0.0001 M): 71.9561 and 66.6762 and 91.932
cAMP response (OR52cs S114A; odorant 0.001 M): 103.979 and 112.532 and 126.832
X-fold over OR52cs (relative fold of EC50) (OR52cs T110A; Supplementary Table 3): 2.9
EC50 (OR52cs T110A; Supplementary Table 3, N=3): 22.7 µM
pEC50 ± SEM (OR52cs T110A; Supplementary Table 3, N=3): 4.293 ± 0.098
cAMP response (OR52cs T110A; odorant 3.0303e-5 M): 45.9718 and 31.6697 and 55.6315
cAMP response (OR52cs T110A; odorant 0.0001 M): 55.3228 and 56.0506 and 78.0827
cAMP response (OR52cs T110A; odorant 0.001 M): 63.5049 and 61.123 and 88.9664
EC50 (OR52cs Y254A; Supplementary Fig. 13b): 0.6 µM
cAMP response (OR52cs Y254A; odorant 9.18274e-8 M): 3.215 and 2.4896 and 3.9476
cAMP response (OR52cs Y254A; odorant 9.18274e-7 M): 17.867 and 17.7491 and 20.6138
cAMP response (OR52cs Y254A; odorant 9.18274e-6 M): 27.7636 and 29.4886 and 28.529
cAMP response (OR52cs Y254A; odorant 3.0303e-5 M): 29.9943 and 28.2884 and 30.9686
cAMP response (OR52cs Y254A; odorant 0.0001 M): 31.1114 and 30.9026 and 31.9237
cAMP response (OR52cs Y254A; odorant 0.001 M): 30.3248 and 30.6953 and 33.5912
cAMP response (OR52cs D212A; odorant 9.18274e-6 M): 0.5276 and 0.521 and 1.015
cAMP response (OR52cs D212A; odorant 3.0303e-5 M): 0.9753 and 0.9567 and 1.328
cAMP response (OR52cs D212A; odorant 0.0001 M): 4.038 and 3.668 and 3.274
cAMP response (OR52cs D212A; odorant 0.001 M): 42.8474 and 43.8072 and 40.1115
OCA-induced activity (in words) (OR52cs-bRIL-ICL3; Supplementary Fig. 11): neither basal activity nor OCA-induced activity
cAMP response (OR52cs-bRIL-ICL3; odorant 9.18274e-8 M, single experiments): 2.864 and 3.4309 and 3.889 and 3.292
cAMP response (OR52cs-bRIL-ICL3; odorant 9.18274e-7 M, single experiments): 3.793 and 3.523 and 3.621 and 3.789
cAMP response (OR52cs-bRIL-ICL3; odorant 9.18274e-6 M, single experiments): 3.871 and 2.869 and 3.568 and 3.2862
cAMP response (OR52cs-bRIL-ICL3; odorant 3.0303e-5 M, single experiments): 3.732 and 3.68 and 3.466 and 3.76
cAMP response (OR52cs-bRIL-ICL3; odorant 0.0001 M, single experiments): 4.827 and 3.799 and 4.225 and 4.217
cAMP response (raw signal) upon OCA treatment (OR52cs-bRIL-ICL3; odorant 0.001 M (1 mM OCA), Fig.S11a left, single experiments, listed as Octanotae): 8475 and 9202 and 7849 and 10195
cAMP response (OR52cs-bRIL-ICL3; odorant 0.001 M, single experiments): 5.645 and 5.075 and 5.021 and 7.052
relative fold of CRE luciferase activity (OR52cs; odorant 10 μM): 1.744 fold and 2.175 fold and 2.388 fold and 2.247 fold
relative fold of CRE luciferase activity (OR52cs; odorant 50 μM): 4.124 fold and 3.914 fold and 5.3918 fold and 4.986 fold
relative fold of CRE luciferase activity (OR52cs; odorant 100 μM): 4.893 fold and 4.461 fold and 6.103 fold and 6.04 fold
relative fold of CRE luciferase activity (OR52cs; odorant 250 μM): 5.851 fold and 4.875 fold and 6.831 fold and 6.812 fold
relative fold of CRE luciferase activity (OR52cs; odorant 500 μM): 8.532 fold and 7.359 fold and 7.746 fold and 7.343 fold
